Reference: PubChem BioAssay AID179 (DTP/NCI, 2004)
Several values for one entry are separate records, joined by “and”; a condition that tells them apart may be missing. Identical values can stand only once. Activity calls are given as the source filed them.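 How the source made its calls: active means compounds giving half or more protection of infected cells from virus-caused growth loss, again on retest; inactive means the rest.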

Test system: CEM cells HIV-1 protection, formazan growth assay
Test: NCI AIDS Antiviral Assay
Conditions: for IC50: measured here: growth of uninfected CEM cells
How it was run: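 Five concentrations of each compound were applied to infected and uninfected human CEM cells. Protection from HIV-1 was judged from growth measured with a soluble formazan assay.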

| Structure (SMILES) | outcome | EC50 [µM] | IC50 |
| --- | --- | --- | --- |
| CC(=O)CC(=O)Nc1ccccc1[N+](=O)[O-] | inactive | – | – |
| COc1ccccc1/C=C(\C#N)c1ccccc1 | – | > 22.4 | 11 µM |
| Cc1ccc(S/C=C/C(=O)Nc2ccccc2)cc1 | – | > 37.2 | > 37.2 µM and 25.1 µM |
| CCCCCCCCCOC(=S)NCCCCC | inactive | – | – |
| CC1(C)Oc2ccc3c4c(c(=O)oc3c2[C@@H](OC(=O)C23CCC(C)(C(=O)O2)C3(C)C)[C@H]1OC(=O)C12CCC(C)(C(=O)O1)C2(C)C)CCCC4 (stereo partly specified) | – | 0.813 | 12 µM |
| CC(C)CCC[C@@H](C)[C@H]1CC[C@H]2[C@@H]3CCC4C[C@@H](CCC=C(c5cc(Cl)c(OCc6ccccc6C(=O)O)c(C(=O)O)c5)c5cc(Cl)c(OCc6ccccc6C(=O)O)c(C(=O)O)c5)CC[C@]4(C)[C@H]3CC[C@]12C (stereo partly specified) | – | 44.7 | > 200 µM |
| C#CCNC(=O)NC(CCCNC(=O)OCc1ccccc1)C(=O)OCc1ccccc1 (stereo unspecified) | – | > 83.2 | > 83.2 µM |
| OC1CSCCCSCC(O)CSCCCSC1 (stereo unspecified) | – | > 759 | 389 µM |
| COc1ccc(OC)c2c(Nc3ccc(S(=O)(=O)O)c4cc(S(=O)(=O)O)cc(S(=O)(=O)O)c34)cc(C)nc12 | – | > 200 | > 200 µM |
| C=CCc1c(C(O)CNC(C)C)ccc(OC)c1OCc1ccccc1 (stereo unspecified) | – | > 200 | 30.2 µM |
| CCOC(=O)N1CCN(C(=O)Nc2cccc3ccccc23)CC1 | inactive | – | – |
| Oc1cc(O)c2c(c1)OC(c1ccc(O)c(O)c1)C(O)[C@H]2c1c(O)cc(O)c2c1OC(c1ccc(O)c(O)c1)C(O)C2 (stereo partly specified) | – | > 200 | 110 µM |
| O=C1C2CCN(CC2)C1CNC1(c2ccccc2)CCCCC1 (stereo unspecified) | inactive | – | – |
| COc1c(OC)c(OC)c2c(=O)cc(-c3ccc(OC(C)=O)cc3)oc2c1OC | – | > 200 | 19.5 µM |
| [N-]=[N+]=CC(=O)OCCCCl | – | > 200 | > 200 µM |
| O=C(/C=C/c1ccccc1)c1ccc(Cl)s1 | – | > 200 | 12.3 µM |
| COc1ccc(C2=NOC(N)(c3ccc(OC)cc3)C2)cc1 (stereo unspecified) | – | > 200 | > 200 µM |
| COc1c(OC)c(C2(O)C(=O)N(C)c3ccccc32)c(OC)c(OC)c1C1(O)C(=O)N(C)c2ccccc21 (stereo unspecified) | – | > 200 | > 200 µM |
| Cc1cc(O)c(/C=N/C(=S)Nc2cc(Cl)ccc2Cl)c(=O)o1 | – | > 50.1 | > 50.1 µM |
| CCOC(=O)C(NC(=O)c1cccc(Cl)c1)(Nc1ccc(S(=O)(=O)Nc2cc(C)on2)cc1)C(F)(F)F (stereo unspecified) | – | > 200 | 155 µM |
| C=CCOc1cccc(C2(O)c3ccccc3C3=NCCCN32)c1 (stereo unspecified) | – | > 200 | 37.2 µM |
| COc1cc(C2C(Cl)C(=O)N2NC(=O)Cc2ccccc2)ccc1O (stereo unspecified) | – | > 72.4 | > 72.4 µM |

| Structure (SMILES) | outcome | EC50 [µM] | IC50 |
| --- | --- | --- | --- |
| Nc1cc(-c2ccc(Cl)cc2)nn1-c1nnc2c(n1)[nH]c1ccccc12 | – | > 200 | > 200 µM |
| COC(=O)C(C(=O)C(=O)Nc1ccc([N+](=O)[O-])cc1)c1nc2ccc([N+](=O)[O-])cc2[nH]c1=O (stereo unspecified) | – | > 57.5 | > 57.5 µM |
| CC(O[Si](c1ccccc1)(c1ccccc1)C(C)(C)C)[C@H](NC(=O)OC(C)(C)C)C(=O)O (stereo partly specified) | – | > 40.7 | > 40.7 µM |
| C=CCOC1OC(CO[Si](C)(C)C(C)(C)C)C(OCc2ccccc2)C(OCc2ccccc2)C1OCc1ccccc1 (stereo unspecified) | inactive | – | – |
| c1ccc(SC23C4C5C6C4C2C6C53)nc1 (stereo unspecified) | – | > 151 | 77.6 µM |
| CCOC(=O)C(C)(C)Oc1ccc2c(C)c(-c3ccc(Cl)cc3)c(=O)oc2c1 | – | > 12.9 | > 12.9 µM |
| CCOC(=O)c1c(Br)c(-c2ccc([N+](=O)[O-])cc2)c(Br)n1C | – | > 200 | 39.8 µM |
| CCCCCCCCC(=O)N(C)C1C2CN3CCC(O2)C13 (stereo unspecified) | inactive | – | – |
| COC(=O)/C(=N\NC(N)=O)C(C#N)c1ccccc1 (stereo unspecified) | – | > 692 | > 692 µM |
| SC[C@@H]1COC[C@H](CS)S1 | – | > 95.5 | > 95.5 µM |
| O=S1(=O)CCCCS1 | – | > 200 | 5.37 µM |
| c1cc(CN2CCNCCNCCNCC2)cc(CN2CCNCCNCCNCC2)c1 | – | > 200 | > 200 µM |
| CC(=O)Oc1cc(Cl)c(C)c2c1[C@H]1CC[C@]3(C)[C@@H](OC(C)=O)CC[C@H]3[C@@H]1CC2 | – | > 126 | > 126 µM |
| COc1ccc(C=O)cc1Oc1ccc(C[C@H]2c3c(cc(OC)c4c3Oc3cc5c(cc3O4)CCN(C)C5=O)CCN2C)cc1 | – | > 200 | 9.77 µM |
| O=C(O)CCCCCCCCCCCO | – | > 200 | > 200 µM |
| O[C@@]1(C#Cc2ccc3c(c2)OCO3)CCC[C@H]1NCc1ccccc1 | – | > 200 | 36.3 µM |
| CN(/N=C/c1ccccn1)C1=NCCN1 | – | > 200 | > 200 µM |
| COc1ccc(/C=N/NC(=O)c2ccc(O)c(CN(C)C)c2)cc1 | – | > 200 | > 200 µM |
| Cc1sc(/N=C/C2=C(O)CC(C)(C)CC2=O)nc1-c1ccccc1 | – | > 200 | 64.6 µM |
| O=c1ccc2c(-c3ccccc3O)c3ccc(O)cc3oc-2c1 | – | > 95.5 | 17.4 µM |
| CCCCCCCCCCCCC(=O)N1CCOCC1 | – | > 200 | 52.5 µM |
| O=S(=O)(O)C(O)CCCC(O)S(=O)(=O)O (stereo unspecified) | – | > 200 | 10.7 µM |

| Structure (SMILES) | outcome | EC50 [µM] | IC50 |
| --- | --- | --- | --- |
| NC(=O)C(=CNC(=S)Nc1ccc(S(=O)(=O)Nc2ccccn2)cc1)C(N)=O | – | > 200 | > 200 µM |
| O=C(O)c1cccc(Nc2ccccc2C(=O)O)c1 | – | > 513 | > 513 µM |
| Cc1nc(N/N=C/c2ccccc2Cl)[nH]c(=O)c1CCO | – | > 100 | > 100 µM |
| O=[N+]([O-])c1ccc(S(=O)(=O)NN=C2CCCCC2)cc1 | – | > 316 | 178 µM |
| NC(=S)NNC(=S)NC(=O)c1ccco1 | – | > 200 | > 200 µM |
| CC(=O)O[C@H]1[C@@H](OC2CCCC2(c2ccccc2)c2ccccc2)O[N+]([O-])=C[C@@H]1c1ccccc1 (stereo partly specified) | – | > 200 | 3.09 µM |
| C=CCC(C)(C(=O)NCCC)C(=O)c1ccccc1O (stereo unspecified) | inactive | – | – |
| O=C1CCC(c2ccccc2)(C2CCN(Cc3ccc(F)cc3)CC2)C(=O)N1 (stereo unspecified) | – | > 200 | 123 µM |
| CN(C)C1C(=O)C(C(=O)NCNCCC(=O)O)=C(O)C2(O)C(=O)C3=C(O)c4c(O)cccc4C(C)(O)C3CC12 (stereo unspecified) | – | > 11.2 | > 11.2 µM |
| Nc1ccc(I)cn1 | – | > 200 | > 200 µM |
| O=C(O)c1cc2ccccc2c(S(=O)(=O)O)c1O | – | > 200 | > 200 µM |
| N#CC1(c2ccccc2)CCN(C2(c3ccccc3)CCCCC2)CC1 | – | > 200 | > 200 µM |
| CN1c2ccccc2NC(CC(=O)O)C2CC=CN21 (stereo unspecified) | – | > 955 | 631 µM |
| CC(=O)OCCn1cnc2c(NCC=C(C)C)ncnc21 | – | > 200 | > 200 µM |
| Cc1[nH]c2[nH]c(=S)nc(NC(N)=S)c2c1Cc1ccccc1 | – | > 100 | 41.7 µM |
| O=C1CCSC2=NCCN12 | inactive | – | – |
| COc1ccc(NC(=O)/C(=C/c2ccccc2)C(C)=O)cc1 | – | > 123 | 18.6 µM |
| CCOC(=O)NC(C(=O)OCC)C(F)(F)F (stereo unspecified) | – | > 200 | 102 µM |
| CC(=O)C(N=NC1CCC(S(=O)(=O)NB2N=CS2)CC1)C(=O)Nc1ccccc1C (stereo unspecified) | – | > 11.5 | > 11.5 µM |
| COCc1c(CO)cnc(C)c1OC1OC(CO)C(O)C(O)C1O (stereo unspecified) | – | > 724 | > 724 µM |
| O=C1CN(C(=O)c2ccccc2)Cc2[nH]c3ccccc3c21 | inactive | – | – |
